According to patent US10329302B2, “Bicyclic-fused heteroaryl or aryl compounds” (Pfizer Inc., priority 2014, dated 2019):
Read-outs that look alike come from different tables or passages of the source.

What was measured:
[1] = tested on: R848-induced TNFα production by human peripheral blood mononuclear cells (PBMCs); experiment: R848 Induced TNFα in Human PBMC Assay; assay type: cell-based; conditions: Homo sapiens, PBMC, 3 h, read-out: R848-induced TNFa PBMC IC50 (nM)
Excerpt: R848 Induced TNFα in Human PBMC Assay.
This protocol is for R848-induced TNFα production by human peripheral blood mononuclear cells (PBMCs). […] The assay is used to assess cell-based potency of small molecule inhibitors of IRAK4 in the absence of serum.
The PBMCs in the interphase layer were collected and washed with PBS via centrifugation multiple times until the supernatant is clear. The purified PBMCs were re-suspended in RPMI (Roswell Park Memorial Institute) media (Sigma-Aldrich).
For the assay, a compound dilution plate containing a top concentration of 4 mM compound in DMSO was serially diluted 4-fold for 11 times. 250 nL of the compound dilution plate was spotted into a 384-well, flat bottom with lid, TC-treated, black with clear bottom, sterile, polystyrene plate (Corning Life Sciences).
10 μL of anti-TNFα antibody labeled with MSD SULFO-TAG at 50 μg/mL was added to each well and allowed to incubate overnight at 4° C.

[2] = target: human IRAK4 FL (Full Length) (Homo sapiens (Human), UniProt Q9NWZ3); experiment: IRAK4 Enzymatic DELFIA Assay, Protocol A; assay type: biochemical
Chain of human IRAK4 FL (Full Length) (Q9NWZ3 whole entry): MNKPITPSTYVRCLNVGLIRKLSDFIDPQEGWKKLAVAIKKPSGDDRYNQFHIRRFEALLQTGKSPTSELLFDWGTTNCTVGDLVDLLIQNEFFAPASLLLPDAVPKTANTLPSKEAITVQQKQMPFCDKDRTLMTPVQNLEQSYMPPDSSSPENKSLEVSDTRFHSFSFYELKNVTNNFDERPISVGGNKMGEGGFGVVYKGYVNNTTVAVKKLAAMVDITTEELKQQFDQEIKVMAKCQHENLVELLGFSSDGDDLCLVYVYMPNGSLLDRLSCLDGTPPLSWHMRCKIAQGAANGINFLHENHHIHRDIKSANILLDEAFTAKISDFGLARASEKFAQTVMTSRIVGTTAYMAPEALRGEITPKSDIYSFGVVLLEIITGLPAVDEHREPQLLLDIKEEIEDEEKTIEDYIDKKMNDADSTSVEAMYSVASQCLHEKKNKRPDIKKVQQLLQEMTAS

[3] = human IRAK4 FL, 0.6 mM ATP (KM), read-out: IRAK4 DELFIA Protocol A IC50

| SMILES | IC50 [1] | IC50 [2, 3] | IC50 [2] |
| --- | --- | --- | --- |
| CC(C)Oc1cc2c(OC[C@@H]3C[C@@H](C)C(=O)N3)nccc2cc1C(N)=O [Example 124, 1-{[(2S,4R)-4-methyl-5-oxopyrrolidin-2-yl]methoxy}-7-(propan-2-yloxy)isoquinoline-6-carboxamide] | 175 nM | 7.8 nM |  |
| CC(C)Oc1cc2c(OC[C@@H]3C[C@H](C)C(=O)N3)nccc2cc1C(N)=O [Example 125, 1-{[(2S,4S)-4-methyl-5-oxopyrrolidin-2-yl]methoxy}-7-(propan-2-yloxy)isoquinoline-6-carboxamide] | 685 nM | 40 nM |  |
| COCC1C[C@@H](COc2nccc3cc(C(N)=O)c(OC(C)C)cc23)NC1=O (stereo partly drawn) [Example 127, 1-{[(2S)-4-(methoxymethyl)-5-oxopyrrolidin-2-yl]methoxy}-7-(propan-2-yloxy)isoquinoline-6-carboxamide] | 682 nM | 65 nM |  |
| CC(C)Oc1cc2c(OC[C@@H]3CC(F)(F)C(=O)N3)nccc2cc1C(N)=O [Example 128, 1-{[(2S)-4,4-difluoro-5-oxopyrrolidin-2-yl]methoxy}-7-(propan-2-yloxy)isoquinoline-6-carboxamide] | 27 nM | 0.3 nM |  |
| CC[C@]1(F)C[C@@H](COc2nccc3cc(C(N)=O)c(OC(C)C)cc23)NC1=O [Example 131, 1-{[(2S,4S)-4-ethyl-4-fluoro-5-oxopyrrolidin-2-yl]methoxy}-7-(propan-2-yloxy)isoquinoline-6-carboxamide] | 29 nM | 0.6 nM |  |
| CC[C@@]1(F)C[C@@H](COc2nccc3cc(C(N)=O)c(OC(C)C)cc23)NC1=O [Example 132, 1-{[(2S,4R)-4-ethyl-4-fluoro-5-oxopyrrolidin-2-yl]methoxy}-7-(propan-2-yloxy)isoquinoline-6-carboxamide] | 1180 nM | 188 nM |  |
| CC(C)Oc1cc2c(OC[C@@H]3C[C@](C)(F)C(=O)N3)nccc2cc1C(N)=O [Example 134, 1-{[(2S,4S)-4-fluoro-4-methyl-5-oxopyrrolidin-2-yl]methoxy}-7-(propan-2-yloxy)isoquinoline-6-carboxamide] | 36 nM | 1 nM |  |
| CC[C@H]1C[C@@H](COc2nccc3cc(C(N)=O)c(OC(C)C)cc23)NC1=O [Example 135, 1-{[(2S,4S)-4-ethyl-5-oxopyrrolidin-2-yl]methoxy}-7-(propan-2-yloxy)isoquinoline-6-carboxamide] | 32 nM | 1.2 nM |  |
| CC[C@@H]1C[C@@H](COc2nccc3cc(C(N)=O)c(OC(C)C)cc23)NC1=O [Example 136, 1-{[(2S,4R)-4-ethyl-5-oxopyrrolidin-2-yl]methoxy}-7-(propan-2-yloxy)isoquinoline-6-carboxamide] | 184 nM | 7.8 nM |  |
| CC(C)Oc1cc2c(OC[C@H]3NC(=O)C[C@@H]3C)nccc2cc1C(N)=O [Example 141, 1-{[(2S,3S)-3-methyl-5-oxopyrrolidin-2-yl]methoxy}-7-(propan-2-yloxy)isoquinoline-6-carboxamide] | 294 nM | 70 nM |  |
| CC(C)Oc1cc2c(OC[C@@H]3C[C@@H](F)C(=O)N3)nccc2cc1C(N)=O [Example 144, 1-{[(2S,4R)-4-fluoro-5-oxopyrrolidin-2-yl]methoxy}-7-(propan-2-yloxy)isoquinoline-6-carboxamide] | 141 nM | 1.4 nM |  |
| CC(C)Oc1cc2c(OC[C@@H]3C[C@H](F)C(=O)N3)nccc2cc1C(N)=O [Example 145, 1-{[(2S,4S)-4-fluoro-5-oxopyrrolidin-2-yl]methoxy}-7-(propan-2-yloxy)isoquinoline-6-carboxamide] | 41 nM | 0.4 nM |  |
| COc1cc2c(OC[C@@H]3CC(F)(F)C(=O)N3)nccc2cc1C(N)=O [Example 146, 1-{[(2S)-4,4-difluoro-5-oxopyrrolidin-2-yl]methoxy}-7-methoxyisoquinoline-6-carboxamide] | 15 nM | 0.2 nM |  |
| CC(C)Oc1cc2c(OCC3(CO)CCC(=O)N3)nccc2cc1C(N)=O (stereo not shown) [Example 147, 1-{[2-(hydroxymethyl)-5-oxopyrrolidin-2-yl]methoxy}-7-(propan-2-yloxy)isoquinoline-6-carboxamide] | 1160 nM |  | 59 nM |
| CC(C)Oc1cc2c(OC[C@@H]3C[C@H](O)C(=O)N3)nccc2cc1C(N)=O [Example 150, 1-{[(2S,4S)-4-hydroxy-5-oxopyrrolidin-2-yl]methoxy}-7-(propan-2-yloxy)isoquinoline-6-carboxamide] | 864 nM | 41 nM |  |
| CC(C)Oc1cc2c(OC[C@@H]3C[C@@H](CC(F)(F)F)C(=O)N3)nccc2cc1C(N)=O [Example 151, 1-{[(2S,4S)-5-oxo-4-(2,2,2-trifluoroethyl)pyrrolidin-2-yl]methoxy}-7-(propan-2-yloxy)isoquinoline-6-carboxamide] | 25 nM | 1.2 nM |  |

| SMILES | IC50 [1] | IC50 [2, 3] | IC50 [2] |
| --- | --- | --- | --- |
| CC(C)Oc1cc2c(OC[C@@H]3C[C@H](CC(F)(F)F)C(=O)N3)nccc2cc1C(N)=O [Example 152, 1-{[(2S,4R)-5-oxo-4-(2,2,2-trifluoroethyl)pyrrolidin-2-yl]methoxy}-7-(propan-2-yloxy)isoquinoline-6-carboxamide] | 139 nM | 6.7 nM |  |
| CC(C)Oc1cc2c(OC[C@@H]3C[C@](F)(CO)C(=O)N3)nccc2cc1C(N)=O [Example 163, 1-{[(2S,4S)-4-fluoro-4-(hydroxymethyl)-5-oxopyrrolidin-2-yl]methoxy}-7-(propan-2-yloxy)isoquinoline-6-carboxamide] | 7450 nM | 1400 nM |  |
| CC(C)Oc1cc2c(OC[C@@H]3C[C@@](F)(CO)C(=O)N3)nccc2cc1C(N)=O [Example 164, 1-{[(2S,4R)-4-fluoro-4-(hydroxymethyl)-5-oxopyrrolidin-2-yl]methoxy}-7-(propan-2-yloxy)isoquinoline-6-carboxamide] | 116 nM | 1.7 nM |  |
| CC(C)Oc1cc2c(OC[C@@H]3C[C@@H](CO)C(=O)N3)nccc2cc1C(N)=O [Example 166, 1-{[(2S,4S)-4-(hydroxymethyl)-5-oxopyrrolidin-2-yl]methoxy}-7-(propan-2-yloxy)isoquinoline-6-carboxamide] | 389 nM | 4.3 nM |  |
| CC(C)Oc1cc2c(OC[C@@H]3CCC(=O)N3)ncc(F)c2cc1C(N)=O [Example 168, 4-fluoro-1-{[(2S)-5-oxopyrrolidin-2-yl]methoxy}-7-(propan-2-yloxy)isoquinoline-6-carboxamide] | 1460 nM | 6.6 nM |  |
| CC(C)Oc1cc2c(OC[C@H]3NC(=O)[C@H](F)[C@H]3C)nccc2cc1C(N)=O [Example 170, 1-{[(2S,3S,4R)-4-fluoro-3-methyl-5-oxopyrrolidin-2-yl]methoxy}-7-(propan-2-yloxy)isoquinoline-6-carboxamide] | 41 nM | 0.8 nM |  |
| CC(C)Oc1cc2c(OC[C@H]3NC(=O)[C@@H]4C[C@H]34)nccc2cc1C(N)=O [Example 174, 1-{[(1S,2S,5R)-4-oxo-3-azabicyclo[3.1.0]hex-2-yl]methoxy}-7-(propan-2-yloxy)isoquinoline-6-carboxamide] | 126 nM | 3.1 nM |  |
| COc1cc2c(OC[C@@H]3C[C@](C)(F)C(=O)N3)nccc2cc1C(N)=O [Example 177, 1-{[(2S,4S)-4-fluoro-4-methyl-5-oxopyrrolidin-2-yl]methoxy}-7-methoxyisoquinoline-6-carboxamide] | 43 nM | 3.8 nM |  |
| CC(C)Oc1cc2c(OC[C@@H]3C[C@@H](O)C(=O)N3)nccc2cc1C(N)=O [Example 179, 1-{[(2S,4R)-4-hydroxy-5-oxopyrrolidin-2-yl]methoxy}-7-(propan-2-yloxy)isoquinoline-6-carboxamide] | 199 nM | 1.2 nM |  |
| CC(C)Oc1cc2c(OC[C@@H]3CCC(=O)N3C)nccc2cc1C(N)=O [Example 180, 1-{[(2S)-1-methyl-5-oxopyrrolidin-2-yl]methoxy}-7-(propan-2-yloxy)isoquinoline-6-carboxamide] | 2560 nM | 1790 nM |  |
| CC(C)Oc1cc2c(OC[C@@H]3CC(C4(O)CCOCC4)C(=O)N3)nccc2cc1C(N)=O (stereo partly drawn) [Example 181, 1-{[(2S)-4-(4-hydroxytetrahydro-2H-pyran-4-yl)-5-oxopyrrolidin-2-yl]methoxy}-7-(propan-2-yloxy)isoquinoline-6-carboxamide] | 503 nM | 5.7 nM |  |
| CC(C)Oc1cc2c(OC[C@H]3NC(=O)C(F)(F)[C@H]3C)nccc2cc1C(N)=O [Example 183, 1-{[(2S,3S)-4,4-difluoro-3-methyl-5-oxopyrrolidin-2-yl]methoxy}-7-(propan-2-yloxy)isoquinoline-6-carboxamide] | 10 nM | 0.2 nM |  |
| CC(C)Oc1cc2c(OC[C@H]3NC(=O)[C@@H](F)[C@H]3C)nccc2cc1C(N)=O [Example 187, 1-{[(2S,3S,4S)-4-fluoro-3-methyl-5-oxopyrrolidin-2-yl]methoxy}-7-(propan-2-yloxy)isoquinoline-6-carboxamide] | 40 nM | 1.1 nM |  |
| CC[C@H]1[C@@H](COc2nccc3cc(C(N)=O)c(OC(C)C)cc23)NC(=O)C1(F)F [Example 201, 1-{[(2S,3S)-3-ethyl-4,4-difluoro-5-oxopyrrolidin-2-yl]methoxy}-7-(propan-2-yloxy)isoquinoline-6-carboxamide] | 1 nM | 0.4 nM |  |
| CC(C)Oc1cc2c(OC[C@@H]3CNC(=O)N3)nccc2cc1C(N)=O [Example 202, 1-{[(4S)-2-oxoimidazolidin-4-yl]methoxy}-7-(propan-2-yloxy)isoquinoline-6-carboxamide] | 922 nM | 85 nM |  |
| COc1cc2c(OC[C@@H]3C[C@@](F)(CO)C(=O)N3)nccc2cc1C(N)=O [Example 205, 1-{[(2S,4R)-4-fluoro-4-(hydroxymethyl)-5-oxopyrrolidin-2-yl]methoxy}-7-methoxyisoquinoline-6-carboxamide] | 380 nM | 3.6 nM |  |
